Patent publication US20090156577A1, “7-AMINO ALKYLIDENYL-HETEROCYCLIC QUINOLONES AND NAPHTHYRIDONES” (priority 2004, published 2009)
Values after ≈ are worked out from the molar mass of the structure shown. Where two headings read alike, the source gives them in different places.

System: pathogenic bacteria
Assay: MIC by microdilution broth method (NCCLS M7-A4), in vitro antibacterial activity
Assay type: cell-based
In short: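 Broth microdilution per NCCLS M7-A4: two-fold serial dilutions in cation-adjusted Mueller-Hinton broth, inoculum about 5×10^4 CFU/well. Trays incubated 16–20 h at 35 °C. MIC read by comparing growth against no-compound growth controls.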

[1] = Staphylococcus aureus, Organism A: Staphylococcus aureus OC4172, read-out: MIC
[2] = Streptococcus pneumoniae, ATCC49619, Organism E: Streptococcus pneumoniae ATCC 49619, read-out: MIC
[3] = Streptococcus pneumoniae, Organism C: fluoroquinolone-resistant clinical isolate of Streptococcus pneumoniae (QRDR amino acid substitutions)
[4] = Streptococcus pneumoniae, Organism D: fluoroquinolone-resistant clinical isolate of Streptococcus pneumoniae (QRDR amino acid substitutions)
[5] = Streptococcus pneumoniae, Organism B: fluoroquinolone-resistant clinical isolate of Streptococcus pneumoniae (QRDR amino acid substitutions)

SMILES	MIC [1]	MIC [2]	MIC [3]	MIC [4]	MIC [5]
COc1c(N2CCC(=C(C#N)CN)CC2)c(F)cc2c(=O)c(C(=O)O)cn([C@@H]3C[C@@H]3F)c12 [Compound 439, 7-[4-(2-Amino-1-cyano-ethylidene)-piperidin-1-yl]-6-fluoro-(1R,2S)-1-(2-fluoro-cyclopropyl)-8-methoxy-4-oxo-1,4-dihydro-quinoline-3-carboxylic Acid]	0.06 µg/mL (≈ 0.135 µM)	0.25 µg/mL (≈ 0.563 µM)	2 µg/mL (≈ 4.5 µM)	2 µg/mL (≈ 4.5 µM)	–
N#C/C(CN)=C1\CCCN(c2nc3c(cc2F)c(=O)c(C(=O)O)cn3C2CC2)C1 [Compound 441, (E)-7-[3-(2-Amino-1-cyano-ethylidene)-piperidin-1-yl]-1-cyclopropyl-6-fluoro-4-oxo-1,4-dihydro-[1,8]naphthyridine-3-carboxylic Acid]	0.5 µg/mL (≈ 1.26 µM)	8 µg/mL (≈ 20.1 µM)	> 16 µg/mL	> 16 µg/mL	8 µg/mL (≈ 20.1 µM)
N#C/C(CN)=C1/CCCN(c2nc3c(cc2F)c(=O)c(C(=O)O)cn3C2CC2)C1 [Compound 443, (Z)-7-[3-(2-Amino-1-cyano-ethylidene)-piperidin-1-yl]-1-cyclopropyl-6-fluoro-4-oxo-1,4-dihydro-[1,8]naphthyridine-3-carboxylic Acid]	0.5 µg/mL (≈ 1.26 µM)	8 µg/mL (≈ 20.1 µM)	> 16 µg/mL	> 16 µg/mL	8 µg/mL (≈ 20.1 µM)
COc1c(N2CCC(=C(Cl)CNC(=O)CN)CC2)c(F)cc2c(=O)c(C(=O)O)cn(C3CC3)c12.O=C(O)C(F)(F)F [Compound 445, 7-{4-[2-(2-Amino-acetylamino)-1-chloro-ethylidene]-piperidin-1-yl}-1-cyclopropyl-6-fluoro-8-methoxy-4-oxo-1,4-dihydro-quinoline-3-carboxylic Acid Trifluoroacetate Salt]	0.12 µg/mL	1 µg/mL	> 16 µg/mL	> 16 µg/mL	16 µg/mL
COc1c(N2CCC/C(=C(/Cl)CN)C2)c(F)cc2c(=O)c(C(=O)O)cn(C3CC3)c12 [Compound 446, (Z)-7-[3-(2-Amino-1-chloro-ethylidene)-piperidin-1-yl]-1-cyclopropyl-6-fluoro-8-methoxy-4-oxo-1,4-dihydro-quinoline-3-carboxylic acid]	0.25 µg/mL (≈ 0.574 µM)	1 µg/mL (≈ 2.29 µM)	4 µg/mL (≈ 9.18 µM)	4 µg/mL (≈ 9.18 µM)	–
NC/C(Cl)=C1\CCCN(c2c(F)cc3c(=O)c(C(=O)O)cn(C4CC4)c3c2OC(F)F)C1 [Compound 447, (Z)-7-[3-(2-Amino-1-chloro-ethylidene)-piperidin-1-yl]-1-cyclopropyl-8-difluoromethoxy-6-fluoro-4-oxo-1,4-dihydro-quinoline-3-carboxylic acid]	0.25 µg/mL (≈ 0.53 µM)	1 µg/mL (≈ 2.12 µM)	16 µg/mL (≈ 33.9 µM)	1 µg/mL (≈ 2.12 µM)	–
C[C@H]1COc2c(N3CCC/C(=C(/Cl)CN)C3)c(F)cc3c(=O)c(C(=O)O)cn1c23 [Compound 448, (Z)-9-[3-(2-Amino-1-chloro-ethylidene)-piperidin-1-yl]-8-fluoro-(3S)-3-methyl-6-oxo-2,3-dihydro-6H-1-oxa-3a-aza-phenalene-5-carboxylic acid]	0.25 µg/mL (≈ 0.593 µM)	2 µg/mL (≈ 4.74 µM)	8 µg/mL (≈ 19 µM)	16 µg/mL (≈ 37.9 µM)	–
COc1c(N2CCC/C(=C(/Cl)CN)C2)c(F)cc2c(=O)c(C(=O)O)cn([C@@H]3C[C@@H]3F)c12 [Compound 449, (Z)-7-[3-(2-Amino-1-chloro-ethylidene)-piperidin-1-yl]-6-fluoro-(1R,2S)-1-(2-fluoro-cyclopropyl)-8-methoxy-4-oxo-1,4-dihydro-quinoline-3-carboxylic acid]	0.25 µg/mL (≈ 0.551 µM)	2 µg/mL (≈ 4.41 µM)	> 16 µg/mL	16 µg/mL (≈ 35.3 µM)	–
NC/C(Cl)=C1\CCCN(c2c(F)cc3c(=O)c(C(=O)O)cn(-c4nc(N)c(F)cc4F)c3c2Cl)C1 [Compound 450, (Z)-7-[3-(2-Amino-1-chloro-ethylidene)-piperidin-1-yl]-1-(6-amino-3,5-difluoro-pyridin-2-yl)-8-chloro-6-fluoro-4-oxo-1,4-dihydro-quinoline-3-carboxylic acid]	0.12 µg/mL (≈ 0.227 µM)	0.5 µg/mL (≈ 0.946 µM)	8 µg/mL (≈ 15.1 µM)	8 µg/mL (≈ 15.1 µM)	–
Cc1c(F)c(N2CCC/C(=C\CN)C2)cc2c1c(=O)c(C(=O)O)cn2C1CC1 [Compound 451, (E)-7-[3-(2-Amino-ethylidene)-piperidin-1-yl]-1-cyclopropyl-6-fluoro-5-methyl-4-oxo-1,4-dihydro-quinoline-3-carboxylic acid]	0.25 µg/mL (≈ 0.649 µM)	1 µg/mL (≈ 2.59 µM)	16 µg/mL (≈ 41.5 µM)	1 µg/mL (≈ 2.59 µM)	–
Cc1c(F)c(N2CCC/C(=C(/Cl)CN)C2)cc2c1c(=O)c(C(=O)O)cn2C1CC1 [Compound 452, (Z)-7-[3-(2-Amino-1-chloro-ethylidene)-piperidin-1-yl]-1-cyclopropyl-6-fluoro-5-methyl-4-oxo-1,4-dihydro-quinoline-3-carboxylic acid]	0.5 µg/mL (≈ 1.19 µM)	4 µg/mL (≈ 9.53 µM)	4 µg/mL (≈ 9.53 µM)	> 16 µg/mL	–
CNC/C(F)=C1/CCCN(c2c(F)cc3c(=O)c(C(=O)O)cn(C4CC4)c3c2OC)C1.Cl [Compound 453, (E)-1-Cyclopropyl-6-fluoro-7-[3-(1-fluoro-2-methylamino-ethylidene)-piperidin-1-yl]-8-methoxy-4-oxo-1,4-dihydro-quinoline-3-carboxylic Acid Hydrochloride Salt]	0.06 µg/mL	0.25 µg/mL	4 µg/mL	2 µg/mL	–
COc1c(N2CCC(=C(Cl)CN)CC2)c(F)c(C)c2c(=O)c(C(=O)O)cn(C3CC3)c12 [Compound 455, 7-[4-(2-Amino-1-chloro-ethylidene)-piperidin-1-yl]-1-cyclopropyl-6-fluoro-8-methoxy-5-methyl-4-oxo-1,4-dihydro-quinoline-3-carboxylic Acid]	≤ 0.015 µg/mL	0.25 µg/mL (≈ 0.556 µM)	2 µg/mL (≈ 4.45 µM)	1 µg/mL (≈ 2.22 µM)	0.12 µg/mL (≈ 0.267 µM)
NC/C(F)=C1/CCCN(c2c(F)c(N)c3c(=O)c(C(=O)O)cn(C4CC4)c3c2F)C1 [Compound 456, 5-Amino-7-[(E)-3-(2-amino-1-fluoro-ethylidene)-piperidin-1-yl]-1-cyclopropyl-6,8-difluoro-4-oxo-1,4-dihydro-quinoline-3-carboxylic Acid]	≤ 0.015 µg/mL	0.03 µg/mL (≈ 0.071 µM)	0.12 µg/mL (≈ 0.284 µM)	0.12 µg/mL (≈ 0.284 µM)	0.06 µg/mL (≈ 0.142 µM)
NC/C(F)=C1/CCCN(c2c(F)cc3c(=O)c(C(=O)O)cn(C4CC4)c3c2OCF)C1 [Compound 457, 7-[(E)-3-(2-Amino-1-fluoro-ethylidene)-piperidin-1-yl]-1-cyclopropyl-6-fluoro-8-fluoromethoxy-4-oxo-1,4-dihydro-quinoline-3-carboxylic Acid]	0.25 µg/mL (≈ 0.572 µM)	1 µg/mL (≈ 2.29 µM)	8 µg/mL (≈ 18.3 µM)	4 µg/mL (≈ 9.14 µM)	2 µg/mL (≈ 4.57 µM)
COc1c(N2CCC/C(=C(\F)CN)C2)c(F)c(C)c2c(=O)c(C(=O)O)cn(C3CC3)c12 [Compound 458, 7-[(E)-3-(2-Amino-1-fluoro-ethylidene)-piperidin-1-yl]-1-cyclopropyl-6-fluoro-8-methoxy-5-methyl-4-oxo-1,4-dihydro-quinoline-3-carboxylic Acid]	≤ 0.015 µg/mL	0.06 µg/mL (≈ 0.138 µM)	0.25 µg/mL (≈ 0.577 µM)	0.25 µg/mL (≈ 0.577 µM)	0.03 µg/mL (≈ 0.0692 µM)
Cc1c(N2CCC/C(=C(\F)CN)C2)c(F)cc2c(=O)c(C(=O)O)cn(C3CC3)c12 [Compound 459, 7-[(E)-3-(2-Amino-1-fluoro-ethylidene)-piperidin-1-yl]-1-cyclopropyl-6-fluoro-8-methyl-4-oxo-1,4-dihydro-quinoline-3-carboxylic Acid]	≤ 0.015 µg/mL	0.06 µg/mL (≈ 0.149 µM)	0.25 µg/mL (≈ 0.62 µM)	0.12 µg/mL (≈ 0.297 µM)	–
COc1c(N2CCC(=C(F)CCN)CC2)c(F)cc2c(=O)c(C(=O)O)cn(C3CC3)c12 [Compound 467, 7-{4-[3-Amino-1-fluoro-propylidene]-piperidin-1-yl}-1-cyclopropyl-6-fluoro-8-methoxy-4-oxo-1,4-dihydro-quinoline-3-carboxylic Acid]	0.12 µg/mL (≈ 0.277 µM)	0.5 µg/mL (≈ 1.15 µM)	4 µg/mL (≈ 9.23 µM)	1 µg/mL (≈ 2.31 µM)	0.5 µg/mL (≈ 1.15 µM)
C[C@H]1COc2c(N3CCC/C(=C(/F)CN)CC3)c(F)cc3c(=O)c(C(=O)O)cn1c23 [Compound 491, (3S)-9-[(Z)-4-(2-Amino-1-fluoro-ethylidene)-azepan-1-yl]-8-fluoro-3-methyl-6-oxo-2,3-dihydro-6H-1-oxa-3a-aza-phenalene-5-carboxylic Acid]	0.12 µg/mL (≈ 0.286 µM)	1 µg/mL (≈ 2.38 µM)	8 µg/mL (≈ 19.1 µM)	16 µg/mL (≈ 38.1 µM)	–
C[C@H]1COc2c(N3CCC/C(=C(\F)CN)CC3)c(F)cc3c(=O)c(C(=O)O)cn1c23 [Compound 492, (3S)-9-[(E)-4-(2-Amino-1-fluoro-ethylidene)-azepan-1-yl]-8-fluoro-3-methyl-6-oxo-2,3-dihydro-6H-1-oxa-3a-aza-phenalene-5-carboxylic Acid]	0.06 µg/mL (≈ 0.143 µM)	0.25 µg/mL (≈ 0.596 µM)	4 µg/mL (≈ 9.54 µM)	8 µg/mL (≈ 19.1 µM)	–
C[C@H]1COc2c(N3CCOC/C(=C(\F)CN)C3)c(F)cc3c(=O)c(C(=O)O)cn1c23 [Compound 493, 9-[(Z)-6-(2-Amino-1-fluoro-ethylidene)-[1,4]oxazepan-4-yl]-8-fluoro-(3S)-3-methyl-6-oxo-2,3-dihydro-6H-1-oxa-3a-aza-phenalene-5-carboxylic Acid]	0.06 µg/mL (≈ 0.142 µM)	0.5 µg/mL (≈ 1.19 µM)	> 16 µg/mL	1 µg/mL (≈ 2.37 µM)	–
C[C@H]1COc2c(N3CCOC/C(=C(/F)CN)C3)c(F)cc3c(=O)c(C(=O)O)cn1c23 [Compound 494, 9-[(E)-6-(2-Amino-1-fluoro-ethylidene)-[1,4]oxazepan-4-yl]-8-fluoro-(3S)-3-methyl-6-oxo-2,3-dihydro-6H-1-oxa-3a-aza-phenalene-5-carboxylic Acid]	1 µg/mL (≈ 2.37 µM)	8 µg/mL (≈ 19 µM)	> 16 µg/mL	> 16 µg/mL	–
